From patent US12291517B2, “Crystalline form of 6-(cyclopropanecarboxamido)-4-((2-methoxy-3-(1-methyl-1H-1,2,4-triazol-3-yl)phenyl)amino)-n-(methyl-D3) pyridazine-3-carboxamide” (Bristol-Myers Squibb Company, priority 2018, dated 2025)
Like-named read-outs stand apart in the source and are kept apart here.

Columns and labels:
[1] = Micro-dissolution comparative study of potential salts (pH transfer model); assay type: physicochemical; parameters: AUC pH 2-6.5 Mean / AUC pH 6-6.5 Mean: unit not given beside the values; details: for pH-effect Ratio: AUC pH 6-6.5 over AUC pH 2-6.5
[2] = Dog PK study, pH effect of free base vs. HCl salt; assay type: in vivo; details: for BA Mean / Cmax / Tmax / AUC(0-t): dog, capsule, 10 mg (1 mpk), famotidine treated (Famo); for Cmax / Tmax / AUC(0-t): in vivo, po, 1 mg/kg; for AUC(0-t): read-out: AUC0-24 h Mean
Source text: In famotidine treated dogs, the mean bioavailability of the HCl salt is 60% higher than the free base.

[3] = Moisture sorption isotherm; assay type: physicochemical
Procedure: Moisture sorption isotherms were collected in a TA Instrument VTI-SA+Vapor Sorption Analyzer using approximately 10 mg of sample. The sample was dried at 60° C. until the loss rate of 0.0005 wt %/min was obtained for 10 minutes. The sample was tested at 25° C. and 3 or 4, 5, 15, 25, 35, 45, 50, 65, 75, 85, and 95% RH. Equilibration at each RH was reached when the rate of 0.0003 wt %/min for 35 minutes was achieved or a maximum of 600 minutes.

[4] = Physical and chemical stability of Form B on storage at different temperature and humidity; assay type: physicochemical
[5] = as above; assay type: physicochemical; remark: listed apart in the source
Procedure: Samples of Form B of Compound (I) were stored at different conditions of temperature and humidity for 4 weeks. The physical stability, characterized by DSC, TGA, and PXRD, were measured at 2 and 4 weeks.

[6] = Dog PK study, pH effect of free base vs. HCl salt; assay type: in vivo; details: capsule, 10 mg (1 mpk), Penta

Q: What does the source list for `CS(=O)(=O)O.[2H]C([2H])([2H])NC(=O)c1nnc(NC(=O)C2CC2)cc1Nc1cccc(-c2ncn(C)n2)c1OC` [MSA salt]?
A: pH-effect Ratio [1]: 0.45; AUC pH 2-6.5 Mean [1]: 12045.08; AUC pH 6-6.5 Mean [1]: 5368.76

Q: With `Cl.[2H]C([2H])([2H])NC(=O)c1nnc(NC(=O)C2CC2)cc1Nc1cccc(-c2ncn(C)n2)c1OC` [Form B of Compound (I), 6-(cyclopropanecarboxamido)-4-((2-methoxy-3-(1-methyl-1H-1,2,4-triazol-3-yl)phenyl)amino)-N-(methyl-d3)pyridazine-3-carboxamide HCl salt] as the molecule, how does the “BA Mean” value [2] read?
A: Its value is 160.90%.

Q: And the Cmax [2]?
A: The Cmax was 180 ng/mL.

Q: And the Tmax [2]?
A: Its Tmax is 2 h.

Q: What about the AUC(0-t) [2] of the same molecule?
A: Its AUC(0-t) is 1340 ng·h/mL.

Q: And the “Mean bioavailability higher than the free base” value ([2]; famotidine treated dogs, 1 mpk)?
A: Its value is 60%.

Q: What about the Hygroscopicity [3] of the same molecule?
A: Its Hygroscopicity is “non-hygroscopic”.

Q: What about the Moisture uptake ([3]; between 25 to 75% relative humidity at 25° C.) of the same molecule?
A: Its Moisture uptake is “less than 0.5%”.

Q: And the “% Assay” value ([4]; 5° C., 1 Month, corrected for water and total volatiles)?
A: The value was 100.3%.

Q: What about the “% Assay” value ([4]; 5° C., 2 weeks) of the same molecule?
A: The value was 98.31%.

Q: What about the “% Assay” value ([4]; 5° C., 3 Months, corrected for water and total volatiles) of the same molecule?
A: Its value is 100.9%.

Q: And the “% Assay” value ([4]; 5° C., 4 weeks)?
A: The value was 98.40%.

Q: What about the “% Assay” value ([4]; 5° C., 6 Months, corrected for water and total volatiles) of the same molecule?
A: Its value is 100.3%.

Q: And the “% Assay” value ([4]; 5° C., 12 Months, corrected for water and total volatiles)?
A: The value was 100.2%.

Q: What about the “% Assay” value ([4]; 25° C./60% RH (closed), 1 Month, corrected for water and total volatiles) of the same molecule?
A: The value was 98.8%.

Q: What about the “% Assay” value ([4]; 25° C./60% RH (closed), 3 Months, corrected for water and total volatiles) of the same molecule?
A: Its value is 100.9%.

Q: What about the “% Assay” value ([4]; 25° C./60% RH (closed), 4 weeks) of the same molecule?
A: Its value is 98.39%.

Q: What about the “% Assay” value ([4]; 25° C./60% RH (closed), 6 Months, corrected for water and total volatiles) of the same molecule?
A: Its value is 99.4%.

Q: What about the “% Assay” value ([4]; 25° C./60% RH (closed), 12 Months, corrected for water and total volatiles) of the same molecule?
A: Its value is 99.9%.

Q: And the “% Assay” value ([4]; 40° C./75% RH (open), 1 Month, corrected for water and total volatiles)?
A: The value was 99.8%.

Q: What about the “% Assay” value ([4]; 40° C./75% RH (open), 2 weeks) of the same molecule?
A: Its value is 98.29%.

Q: And the “% Assay” value ([4]; 40° C./75% RH (open), 3 Months, corrected for water and total volatiles)?
A: The value was 98.7%.

Q: What about the “% Assay” value ([4]; 40° C./75% RH (open), 6 Months, corrected for water and total volatiles) of the same molecule?
A: The value was 101.0%.

Q: What about the “% Assay” value ([4]; 40° C./75% RH (open), 12 Months, corrected for water and total volatiles) of the same molecule?
A: The value was 100.3%.

Q: And the “% Assay” value ([4]; 50° C., 2 weeks)?
A: The value was 98.32%.

Q: What about the “% Assay” value ([4]; HIL/UV, 2 weeks) of the same molecule?
A: Its value is 98.44%.

Q: What about the “Physical stability (physical form)” value ([4]; by DSC, TGA and PXRD at 2 and 4 weeks, different temperature and humidity conditions) of the same molecule?
A: The value was “No change in the physical form was detected”.

Q: And the “Physical or chemical degradation” value ([4]; tested temperature and humidity conditions)?
A: Its value is “no significant physical or chemical degradation”.

Q: And the “% Assay” value ([4]; −20° C., 1 Month, corrected for water and total volatiles)?
A: The value was 99.9%.

Q: What about the “% Assay” value ([5]; 5° C. (control), 2 weeks) of the same molecule?
A: Its value is 98.32%.

Q: What about the “% Assay” value ([5]; 25° C./60% RH (closed), 2 weeks) of the same molecule?
A: Its value is 98.26%.

Q: What about the “% Assay” value ([5]; 40° C./75% RH (open), 4 weeks) of the same molecule?
A: Its value is 98.37%.

Q: And the “% Assay” value ([5]; 50° C., 4 weeks)?
A: Its value is 98.40%.

Q: What about the “% Assay” value ([5]; HIL/UV, 4 weeks) of the same molecule?
A: The value was 98.44%.

Q: What about the Chemical stability ([5]; storage conditions of Table 3, up to 4 weeks) of the same molecule?
A: The Chemical stability was “no measure change in chemical stability”.

Q: What about the “pH-effect Ratio” value [1] of the same molecule?
A: The value was 0.61.

Q: What about the “Mitigation of the pH effect” value ([1]; comparison of salts) of the same molecule?
A: The value was “mitigates the pH effect better than MSA and sulfate (SO4) salts”.

Q: What about the “AUC pH 2-6.5 Mean” value [1] of the same molecule?
A: The value was 12345.28.

Q: What about the “AUC pH 6-6.5 Mean” value [1] of the same molecule?
A: Its value is 7492.66.

Q: Which “BA Mean” value [2] does the source give for `[2H]C([2H])([2H])NC(=O)c1nnc(NC(=O)C2CC2)cc1Nc1cccc(-c2ncn(C)n2)c1OC` [Compound (I), 6-(cyclopropanecarboxamido)-4-((2-methoxy-3-(1-methyl-1H-1,2,4-triazol-3-yl)phenyl)amino)-N-(methyl-d3)pyridazine-3-carboxamide] here?
A: The value was 85.44%.

Q: What about the Cmax [2] of the same molecule?
A: Its Cmax is 62.8 ng/mL.

Q: What about the Tmax [2] of the same molecule?
A: Its Tmax is 3.5 h.

Q: What about the AUC(0-t) [2] of the same molecule?
A: The AUC(0-t) was 586 ng·h/mL.

Q: What about the “BA Mean” value [6] of the same molecule?
A: The value was 100.00%.

Q: What about the Cmax ([6]; in vivo, po, 1 mg/kg) of the same molecule?
A: Its Cmax is 122 ng/mL.

Q: What about the Tmax ([6]; in vivo, po, 1 mg/kg) of the same molecule?
A: Its Tmax is 2.5 h.

Q: And the AUC(0-t) ([6]; in vivo, po, 1 mg/kg, read-out: AUC0-24 h Mean)?
A: The AUC(0-t) was 975 ng·h/mL.

Q: What about the “pH-effect Ratio” value [1] of the same molecule?
A: Its value is 0.27.

Q: And the “AUC pH 2-6.5 Mean” value [1]?
A: The value was 6094.11.

Q: And the “AUC pH 6-6.5 Mean” value [1]?
A: Its value is 1640.60.
